How the values were obtained:
hEP4 [1] = target: T1, hEP4 (Homo sapiens, UniProt P35408); assay: Human EP receptor cell membrane binding assay ([3H]-PGE2); design: expressed in transfected cells; membrane fraction; conditions: [3H]-PGE2 binding to membranes of human EP4/HEK293 transfectant; acidic and hypotonic buffer condition, MME buffer
From the text: Human EP Receptor Cell Membrane Binding Assay:
Stable Expression of Human EP1, 2, 3 and 4 Receptors in the Human Embryonic Kidney (HEK293) Cell Line
The cDNA clones of human EP1, 2, 3 and 4 receptors are obtained by polymerase chain reaction (PCR) from […] kidney or heart cDNA libraries (Clontech). Human embryonic kidney cells (HEK 293) are stably transfected with expression vectors for human EP1, 2, 3 and 4 receptors in according to the method described in the article; the journal of biological chemistry vol. 271 No. 39, pp 23642–23645.
Preparation of Membrane Fraction:
The EP1, 2, 3 and 4 transfectant are grown in Dulbecco's modified Eagle's medium containing 10% fetal bovine serum, 50 U/ml penicillin, 50 μg/ml streptomycin and 500 μg/ml G418 (selection medium) at 37° C. in a humidified atmosphere of 5% CO2 in air. For the membrane preparation, cells are harvested with phosphate buffered saline (PBS) and centrifuged at 400×g for 5 min. The pellet is suspended with child (4° C.) PBS containing 1/100 volume of protease inhibitor cocktail (SIGMA) (1 mM (4-(2-aminoethyl)-benzenesulfonyl fluoride (AEBSF)), 0.8 μM Aprotinin, 22 μM Leupeptin, 40 μM Bestatin, 15 μM Pepstatin A and 14 μM E-64). Cells are lysed with ultrasonic cell disrupter for 60-sec sonication. Then cell mixtures are centrifuged at 1,000×g for 10 minutes. The supernatant μs centrifuged at 160,000×g for 30 minutes at 4° C. The pellet is resuspended in assay buffer (10 mM 2-morpholinoeth-anesulfonic acid (MES)-KOH, 1 mM etylenediamine tetra-acetic acid (EDTA), 10 mM MgCl2, pH 6.0), and protein concentration is determined by Bradford method (Bio-Rad assay). This membrane preparation is stored at −80° C. freezer until use for binding assay.
[^3H]-PGE2 membrane binding assays are performed in the reaction mixture of 10 mM MES/KOH (pH6.0), 10 mM MgCl2, 1 mM EDTA, 1 nM [^3H]-PGE2 (Amersham TRK431, 164 Ci/mmol), 2˜10 μg of protein from membrane fraction (human EP1, 2, 3 and 4/HEK293 transfectant) and test compound (total volume is 0.1 ml in 96 well polypropylene plate). Incubation is conducted for 60 min at room temperature prior to separation of the bound and free radioligand by rapid filtration through glass fiber filters (Printed Filtermat B, 1205-404, glass fiber, double thickness, size 102×258 mm, Wallac inc., presoaked in 0.2% polyethylenimine). Filters are washed with assay buffer and the residual [^3H]-PGE2 bound to the filter is determined by liquid scintillation counter (1205 Betaplate™). Specific binding is defined as the difference between total binding and nonspecific binding which is determined in the presence of 10 μM PGE2.

hEP4 [2] = target: T1, hEP4; assay: cAMP assay in human EP4 transfectant (functional assay); format: cell-based; design: expressed in transfected cells; host or cells: HEK293 (hEP4 cells), selected with geneticin; conditions: vs 1 nM PGE2; for IC50: cAMP in HEK293 cells expressing human EP4
Description: cAMP Assay in Human EP4 Transfectant
HEK293 cells expressing human EP4 receptors (hEP4 cells) are maintained in DMEM containing 10% FBS and 500 μg/ml geneticin. For harvesting hEP4 cells, culture medium is aspirated and cells in 75 cm^2 flask are washed with 10 ml of phosphate buffered saline (PBS). Another 10 ml of PBS is added to the cells and incubated for 20 min at room temperature. Human EP4 cells are harvested by pipetting and centrifuged at 300×g for 4 min. Cells are resuspended in DMEM without neutral red at a density of 7×10^5 cells/ml containing 0.2 mM IBMX (PDE inhibitor), 1 nM PGE2 and test compounds in PCR-tubes, and incubated at 37° C. for 10 min. The reaction is stopped by heating at 100° C. for 10 min with thermal cycler. Concentration of cAMP in reaction mixtures is determined with SPA cAMP Kit (Amersham) or cAMP Screen™ (Applied Biosystems) according to the manufacture's instruction. • Reference: Eur. J. Pharmacol. 340 (1997) 227–241

T1 sequence (P35408 whole entry): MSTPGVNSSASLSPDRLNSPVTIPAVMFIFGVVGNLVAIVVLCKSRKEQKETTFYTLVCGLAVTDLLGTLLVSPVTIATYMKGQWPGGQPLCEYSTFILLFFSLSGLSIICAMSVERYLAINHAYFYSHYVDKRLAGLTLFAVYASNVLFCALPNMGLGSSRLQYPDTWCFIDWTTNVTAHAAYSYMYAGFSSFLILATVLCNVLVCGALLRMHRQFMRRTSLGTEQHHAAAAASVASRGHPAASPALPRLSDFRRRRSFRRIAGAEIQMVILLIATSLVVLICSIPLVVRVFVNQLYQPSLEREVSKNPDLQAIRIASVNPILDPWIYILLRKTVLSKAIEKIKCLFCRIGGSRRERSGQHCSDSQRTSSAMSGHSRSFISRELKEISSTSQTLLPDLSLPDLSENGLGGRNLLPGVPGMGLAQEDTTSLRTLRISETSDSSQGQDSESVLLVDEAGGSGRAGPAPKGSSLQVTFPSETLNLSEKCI

SMILES | Ki (hEP4 [1]) | IC50 (hEP4 [2]) | inhibition at 5 µM (hEP4 [2]; @ 5000 nM, read-out: functional assay human EP4 % Inh.)
O=C(O)c1ccc(CNC(=O)c2cc(C(F)(F)F)cnc2Oc2ccc(F)cc2)cc1 [Example 56, 4-[({[2-(4-FLUOROPHENOXY)-5-(TRIFLUOROMETHYL)PYRIDIN-3-YL]CARBONYL}AMINO)METHYL]BENZOIC ACID] | 20 nM | 820 nM | 
N#Cc1cnc(Oc2ccc(F)cc2)c(C(=O)NCc2ccc(C(=O)O)cc2)c1 [Example 57, 4-[({[5-CYANO-2-(4-FLUOROPHENOXY)PYRIDIN-3-YL]CARBONYL}AMINO)METHYL]BENZOIC ACID] | 92 nM | 1800 nM | 75%
C[C@H](NC(=O)c1cc(Cl)ccc1Oc1ccc(F)cc1)c1ccc(C(=O)O)cc1 [Example 68, 4-((1S)-1-{[5-CHLORO-2-(4-FLUOROPHENOXY)BENZOYL]AMINO}ETHYL)BENZOIC ACID] | 2.4 nM | 43 nM | 
C[C@H](NC(=O)c1cc(Cl)cnc1Oc1cccc(-c2nccs2)c1)c1ccc(C(=O)O)cc1 [Example 45, 4-{(1S)-[({5-CHLORO-2-[3-(1,3-THIAZOL-2-YL)PHENOXY]PYRIDIN-3-YL}CARBONYL)AMINO]ETHYL}BENZOIC ACID] | 0.3 nM | 28 nM | 
C[C@H](NC(=O)c1cc(Cl)ccc1Cc1cccc(Cl)c1)c1ccc(C(=O)O)cc1 [Example 148, 4-((1S)-1-{[5-CHLORO-2-(3-CHLOROBENZYL)BENZOYL]AMINO}ETHYL)BENZOIC ACID] | 0.7 nM | 3.6 nM | 
C[C@H](NC(=O)c1cc(Cl)cnc1Oc1cccc(F)c1)c1ccc(C(=O)O)cc1 [Example 48, 4-[(1S)-1-({[5-CHLORO-2-(3-FLUOROPHENOXY)PYRIDIN-3-YL]CARBONYL}AMINO)ETHYL]BENZOIC ACID] | 1 nM | 19 nM | 
O=C(NCc1ccc(-c2nn[nH]n2)cc1)c1cc(Cl)ccc1Oc1ccc(F)cc1 [Example 76, 5-CHLORO-2-(4-FLUOROPHENOXY)-N-[4-(2H-TETRAZOL-5-YL)BENZYL]BENZAMIDE] | 1.8 nM | 100 nM | 
O=C(NCc1ccc(-c2nn[nH]n2)cc1)c1cc(Cl)cnc1Oc1ccc(F)cc1 [Example 74, 5-CHLORO-2-(4-FLUOROPHENOXY)-N-[4-(2H-TETRAZOL-5-YL)BENZYL]NICOTINAMIDE] | 4 nM | 140 nM | 
C[C@H](NC(=O)c1cc(Cl)cnc1Oc1cccc(F)c1)c1ccc(C(=O)NS(=O)(=O)c2cccc(Cl)c2)cc1 [Example 79, 5-CHLORO-N-{(1S)-1-[4-({[(3-CHLOROPHENYL)SULFONYL]AMINO}CARBONYL)PHENYL]ETHYL}-2-(3-FLUOROPHENOXY)NICOTINAMIDE] | 0.7 nM | 21 nM | 
C[C@H](NC(=O)c1cc(Cl)cnc1Oc1ccc(F)c(F)c1)c1ccc(C(=O)O)cc1 [Example 55, 4-[(1S)-1-({[5-CHLORO-2-(3,4-DIFLUOROPHENOXY)PYRIDIN-3-YL]CARBONYL}AMINO)ETHYL]BENZOIC ACID] | 0.7 nM | 20 nM | 
